From patent US20240158446A1, “CYCLIC COMPOUND HAVING SELECTIVE INHIBITORY ACTION ON KRAS OVER HRAS AND NRAS” (CHUGAI SEIYAKU KABUSHIKI KAISHA, priority 2021, published 2024)

How the values were obtained:
[1] = target: GDP-bound KRAS wild-type protein (Homo sapiens, UniProt P01116); assay: Binding to KRAS by surface plasmon resonance (SPR), Single Cycle Kinetics; settings: SPR, Single Cycle Kinetics, 1:1 binding model; GDP-bound KRAS wild-type protein; read-out: KRAS KD
[2] = target: GDP-bound HRAS wild-type protein (Homo sapiens, UniProt P01112); assay: Binding to HRAS by surface plasmon resonance (SPR), Single Cycle Kinetics; settings: SPR; GDP-bound HRAS wild-type protein vs GDP-bound KRAS wild-type protein; KD ratio class
GDP-bound HRAS wild-type protein, sequence (P01112 whole entry): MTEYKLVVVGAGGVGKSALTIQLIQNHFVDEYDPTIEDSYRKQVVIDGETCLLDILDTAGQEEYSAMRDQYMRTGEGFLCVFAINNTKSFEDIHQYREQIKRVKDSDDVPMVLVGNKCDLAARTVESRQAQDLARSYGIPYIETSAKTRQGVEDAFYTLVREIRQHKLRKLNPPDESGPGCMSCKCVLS

[3] = target: GDP-bound NRAS wild-type protein (Homo sapiens, UniProt P01111); assay: Binding to NRAS by surface plasmon resonance (SPR), Single Cycle Kinetics; settings: SPR; GDP-bound NRAS wild-type protein vs GDP-bound KRAS wild-type protein; KD ratio class
GDP-bound NRAS wild-type protein, sequence (P01111 whole entry): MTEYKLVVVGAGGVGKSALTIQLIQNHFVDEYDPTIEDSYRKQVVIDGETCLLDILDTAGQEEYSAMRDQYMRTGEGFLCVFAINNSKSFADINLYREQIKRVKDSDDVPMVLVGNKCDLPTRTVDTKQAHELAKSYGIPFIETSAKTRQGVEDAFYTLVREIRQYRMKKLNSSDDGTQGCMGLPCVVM

GDP-bound KRAS wild-type protein, sequence (P01116 whole entry): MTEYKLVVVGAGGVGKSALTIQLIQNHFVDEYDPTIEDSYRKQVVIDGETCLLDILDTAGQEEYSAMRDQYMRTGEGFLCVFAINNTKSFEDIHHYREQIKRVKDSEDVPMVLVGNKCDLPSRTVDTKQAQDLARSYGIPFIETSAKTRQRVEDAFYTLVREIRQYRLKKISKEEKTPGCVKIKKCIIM

Compound	Kd [1] [pM]	HRAS/KRAS (ratio of KD value for HRAS to KD value for KRAS) [2]	NRAS/KRAS (ratio of KD value for NRAS to KD value for KRAS) [3]
CCO[C@@H]1C[C@H]2C(=O)NC3(CCC3)C(=O)N(C)[C@@H](C3CCCC3)C(=O)N(C)[C@H](C(=O)N(C)CCOC)CC(=O)N(C)[C@@H](CC(C)C)C(=O)N[C@@H]([C@@H](C)CC)C(=O)N(C)CC(=O)N(C)[C@H]3C/C=C\CCN(C3=O)[C@@H](Cc3ccc(C(F)(F)F)cc3)C(=O)N(C)CC(=O)N[C@@H](CCc3ccc4sccc4c3)C(=O)N2C1 [PP1325]	550	A (a compound having 10 or more and less than 20 is denoted as A)	A (a compound having 10 or more and less than 20 is denoted as A)
CCO[C@@H]1C[C@H]2C(=O)NC3(CCC3)C(=O)N(C)[C@@H](C3CCCC3)C(=O)N(C)[C@H](C(=O)N(C)CCOC)CC(=O)N(C)[C@@H](CC(C)C)C(=O)N[C@@H]([C@@H](C)CC)C(=O)N(C)CC(=O)N(C)[C@H]3C/C=C\CCN(C3=O)[C@@H](Cc3ccc(C(F)(F)F)cc3)C(=O)N(C)CC(=O)N[C@@H](CCc3ccc(Cl)c(Cl)c3)C(=O)N2C1 [PP1326]	270	A (a compound having 10 or more and less than 20 is denoted as A)	AA (a compound having 20 or more is denoted as AA)
CCO[C@@H]1C[C@H]2C(=O)NC3(CCC3)C(=O)N(C)[C@@H](C3CCCC3)C(=O)N(C)[C@H](C(=O)N(C)CCOC)CC(=O)N(C)[C@@H](CC3CC3)C(=O)N[C@@H]([C@@H](C)CC)C(=O)N(C)CC(=O)N(C)[C@H]3C/C=C\CCN(C3=O)[C@@H](Cc3ccc(C(F)(F)F)cc3)C(=O)N(C)CC(=O)N[C@@H](CCc3ccc(C(F)(F)F)c(OC)c3)C(=O)N2C1 [PP1327]	110	A (a compound having 10 or more and less than 20 is denoted as A)	A (a compound having 10 or more and less than 20 is denoted as A)
CCO[C@@H]1C[C@H]2C(=O)NC3(CCC3)C(=O)N(C)[C@@H](C3CCCC3)C(=O)N(C)[C@H](C(=O)N(C)CCOC)CC(=O)N(C)[C@@H](CC3CC3)C(=O)N[C@@H]([C@@H](C)CC)C(=O)N(C)CC(=O)N(C)[C@H]3C/C=C\CCN(C3=O)[C@@H](Cc3ccc(C(F)(F)F)cc3)C(=O)N(C)CC(=O)N[C@@H](CCc3ccc4sccc4c3)C(=O)N2C1 [PP1328]	560	A (a compound having 10 or more and less than 20 is denoted as A)	A (a compound having 10 or more and less than 20 is denoted as A)
CCO[C@@H]1C[C@H]2C(=O)NC3(CCC3)C(=O)N(C)[C@@H](C(CC)CC)C(=O)N(C)[C@H](C(=O)N(C)CCOC)CC(=O)N(C)[C@@H](CC)C(=O)N[C@@H]([C@@H](C)CC)C(=O)N(C)CC(=O)N(C)[C@H]3C/C=C\CCN(C3=O)[C@@H](Cc3ccc(C(F)(F)F)cc3)C(=O)N(C)CC(=O)N[C@@H](CCc3cc(F)c(C(F)(F)F)c(F)c3)C(=O)N2C1 [PP1330]	420	A (a compound having 10 or more and less than 20 is denoted as A)	AA (a compound having 20 or more is denoted as AA)
CCC[C@H]1C(=O)N[C@@H]([C@@H](C)CC)C(=O)N(C)CC(=O)N(C)[C@H]2C/C=C\CCN(C2=O)[C@@H](Cc2ccc(C(F)(F)F)cc2)C(=O)N(C)CC(=O)N[C@@H](CCc2cc(F)c(C(F)(F)F)c(F)c2)C(=O)N2C[C@H](OCC)C[C@H]2C(=O)NC2(CCC2)C(=O)N(C)[C@@H](C2CCCC2)C(=O)N(C)[C@H](C(=O)N(C)CCOC)CC(=O)N1C [PP1331, (2S,8S,12R,14S,20S,23S,27S,30S,36S,38Z)-20-cyclopentyl-8-[2-[3,5-difluoro-4-(trifluoromethyl)phenyl]ethyl]-12-ethoxy-N-(2-methoxyethyl)-N,4,19,22,26,32,35-heptamethyl-30-[(1S)-1-methylpropyl]-3,6,9,15,18,21,25,28,31,34,42-undecaoxo-27-propyl-2-[[4-(trifluoromethyl)phenyl]methyl]spiro[1,4,7,10,16,19,22,26,29,32,35-undecazatricyclo[34.5.1.0^10,14]dotetracont-38-ene-17,1′-cyclobutane]-23-carboxamide]	80	A (a compound having 10 or more and less than 20 is denoted as A)	A (a compound having 10 or more and less than 20 is denoted as A)
CCO[C@@H]1C[C@H]2C(=O)NC3(CCC3)C(=O)N(C)[C@@H](C3CCCC3)C(=O)N(C)[C@H](C(=O)N3CCOCC3)CC(=O)N(C)[C@@H](CC(C)C)C(=O)N[C@@H]([C@@H](C)CC)C(=O)N(C)CC(=O)N(C)[C@H]3CC/C=C(/C)CN(C3=O)[C@@H](Cc3ccc(C(F)(F)F)cc3)C(=O)N(C)CC(=O)N[C@@H](CCc3cc(F)c(C(F)(F)F)c(F)c3)C(=O)N2C1 [PP1333]	58000	B (a compound having 3 or more and less than 10 is denoted as B)	C (A compound having a KD ratio of 0.1 or more and less than 3 is denoted as C)
CCO[C@@H]1C[C@H]2C(=O)NC3(CCC3)C(=O)N(C)[C@@H](C3CCCC3)C(=O)N(C)[C@H](C(=O)N(C)C)CC(=O)N(C)[C@@H](CC)C(=O)N[C@@H]([C@@H](C)CC)C(=O)N(C)CC(=O)N(C)[C@H]3CC/C=C(/C)CN(C3=O)[C@@H](Cc3ccc(C(F)(F)F)cc3)C(=O)N(C)CC(=O)N[C@@H](CCc3cc(F)c(C(F)(F)F)c(F)c3)C(=O)N2C1 [PP1334]	11000	B (a compound having 3 or more and less than 10 is denoted as B)	B (a compound having 3 or more and less than 10 is denoted as B)
CCO[C@@H]1C[C@H]2C(=O)NC3(CCC3)C(=O)N(C)[C@@H](C3CCCC3)C(=O)N(C)[C@H](C(=O)N3CCOCC3)CC(=O)N(C)[C@@H](CC)C(=O)N[C@@H]([C@@H](C)CC)C(=O)N(C)CC(=O)N(C)[C@H]3CC/C=C(/C)CN(C3=O)[C@@H](Cc3ccc(C(F)(F)F)cc3)C(=O)N(C)CC(=O)N[C@@H](CCc3cc(F)c(C(F)(F)F)c(F)c3)C(=O)N2C1 [PP1335]	18000	B (a compound having 3 or more and less than 10 is denoted as B)	B (a compound having 3 or more and less than 10 is denoted as B)
CCO[C@@H]1C[C@H]2C(=O)NC3(CCCC3)C(=O)N(C)[C@@H](C3CCCC3)C(=O)N(C)[C@H](C(=O)N(C)C)CC(=O)N(C)[C@@H](CC)C(=O)N[C@@H]([C@@H](C)CC)C(=O)N(C)CC(=O)N(C)[C@H]3C[C@H](C)C(C)CN(C3=O)[C@@H](Cc3ccc(C(F)(F)F)cc3)C(=O)N(C)CC(=O)N[C@@H](CCc3cc(F)c(C(F)(F)F)c(F)c3)C(=O)N2C1 (stereo partly drawn) [PP1347]	17	B (a compound having 3 or more and less than 10 is denoted as B)	B (a compound having 3 or more and less than 10 is denoted as B)
